Key:
CjCst-I = format: biochemical, Campylobacter jejuni
CjCst-II = format: biochemical, Campylobacter jejuni

## CCCCCCCCCCCCC/C=C/[C@@H](O)[C@@H](N)CO [GD1b sphingosine]
CjCst-I
  activity towards sialylating: very good activity

## CC(=O)N[C@H]1[C@H](O)[C@H](NC(C)=O)C(O)O[C@@H]1CO (stereo partly drawn) [ManNAc4NAc, 4-acetamido-4-deoxy-N-acetylmannosamine]
CjCst-II
  Sialylation by CjCst-II, acceptor GM3ßSph: No reaction
  Sialylation by CjCst-II, acceptor GM3βProN3: No reaction

From US20240409571A1 (priority 2023, published 2024)
